In BindingDB's records for PubMed 1828505 (University of Pennsylvania, 1991):
“And” between values parts separate entries of the source, which are not always exact repeats. Identical values can stand only once.

Biological target: D(2) dopamine receptor (Homo sapiens, UniProt P14416)
Sequence (P14416 whole entry): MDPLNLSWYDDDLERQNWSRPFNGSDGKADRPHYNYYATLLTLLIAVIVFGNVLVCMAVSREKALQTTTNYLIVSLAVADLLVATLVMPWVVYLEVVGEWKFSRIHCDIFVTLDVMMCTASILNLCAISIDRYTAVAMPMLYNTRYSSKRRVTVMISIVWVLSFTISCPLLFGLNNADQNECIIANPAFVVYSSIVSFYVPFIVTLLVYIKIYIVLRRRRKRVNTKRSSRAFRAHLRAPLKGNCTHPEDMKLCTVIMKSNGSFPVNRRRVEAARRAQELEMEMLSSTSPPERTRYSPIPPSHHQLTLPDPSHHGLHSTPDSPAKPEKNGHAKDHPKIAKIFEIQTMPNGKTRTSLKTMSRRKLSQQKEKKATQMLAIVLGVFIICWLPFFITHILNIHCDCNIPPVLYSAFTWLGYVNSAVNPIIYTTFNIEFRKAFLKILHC

With `OCCN1CCN(CC/C=C2/c3ccccc3Sc3ccc(C(F)(F)F)cc32)CC1` [(cis) 2-{4-[3-(2-Trifluoromethyl-thioxanthen-9-ylidene)-propyl]-piperazin-1-yl}-ethanol(Flupentixol)] the Ki was 0.6 nM and 2.3 nM and 0.66 nM and 0.73 nM and 2.5 nM.
